Values quoted from earlier work in PubChem BioAssay AID1259409 (Chemical Carcinogenesis Research Information System (CCRIS), 2018).

System: rodent chemically induced tumor inhibition, incidence and multiplicity
Assay: CCRIS tumor inhibitor studies
Conditions: Route [Inhibitor]: ORAL

Question: What does the source list for `O=[Se](O)O`?
Answer: tumour outcome (control, treated, inhibition, significance) (Carcinogen: DIETHYLNITROSAMINE, 55-18-5, Dose [Inhibitor]: 0, 10 MG/L IN DRINKING WATER FOR DURATION OF STUDY BEGINNING 4 D POST CARCINOGEN TREATMENT (STUDY DURATION: 6 MO), Species: RAT, Strain/Sex: BD6/FEMALE, Target Tissue: Type of Lesion: ESOPHAGUS: TUMOR, Dose [Carcinogen]: 80 MG/KG BW 1/WK FOR 9 WK, Promoter: NONE USED): 29%, 18%, 38%, not significant; tumour outcome (control, treated, inhibition, significance) (Carcinogen: DIETHYLNITROSAMINE, 55-18-5, Dose [Inhibitor]: 0, 10 MG/L IN DRINKING WATER FOR DURATION OF STUDY BEGINNING 7 D PRIOR TO CARCINOGEN TREATMENT (STUDY DURATION: 6 MO), Species: RAT, Strain/Sex: BD6/FEMALE, Target Tissue: Type of Lesion: ESOPHAGUS: TUMOR, Dose [Carcinogen]: 80 MG/KG BW 1/WK FOR 7 WK, Promoter: NONE USED): 25%, 14%, 44%, not significant; tumour outcome (control, treated, inhibition, significance) (Carcinogen: DIETHYLNITROSAMINE, 55-18-5, Dose [Inhibitor]: 0, 10 MG/L IN DRINKING WATER FOR DURATION OF STUDY BEGINNING 7 D PRIOR TO CARCINOGEN TREATMENT (STUDY DURATION: 6 MO), Species: RAT, Strain/Sex: BD6/FEMALE, Target Tissue: Type of Lesion: LIVER: TUMOR, Dose [Carcinogen]: 80 MG/KG BW 1/WK FOR 7 WK, Promoter: NONE USED): 64%, 31%, 52%, p<0.05; tumour outcome (control, treated, inhibition, significance) (Carcinogen: DIETHYLNITROSAMINE, 55-18-5, Dose [Inhibitor]: 0, 10 MG/L IN DRINKING WATER FOR DURATION OF STUDY BEGINNING 7 D PRIOR TO FIRST CARCINOGEN DOSE (STUDY DURATION: 6 MO), Species: RAT, Strain/Sex: BD6/FEMALE, Target Tissue: Type of Lesion: ESOPHAGUS: TUMOR, Dose [Carcinogen]: 80 MG/KG BW 1/WK FOR 8 WK, Promoter: NONE USED): 31%, 39%, -26%, not significant; tumour outcome (control, treated, inhibition, significance) (Carcinogen: DIETHYLNITROSAMINE, 55-18-5, Dose [Inhibitor]: 0, 10 MG/L IN DRINKING WATER FOR DURATION OF STUDY BEGINNING 7 D PRIOR TO FIRST CARCINOGEN DOSE (STUDY DURATION: 6 MO), Species: RAT, Strain/Sex: BD6/FEMALE, Target Tissue: Type of Lesion: ESOPHAGUS: TUMOR, Dose [Carcinogen]: 100 MG/L IN DRINKING WATER FOR 3.5 MO, Promoter: NONE USED): 37%, 25%, 32%, not significant; tumour outcome (control, treated, inhibition, significance) (Carcinogen: DIETHYLNITROSAMINE, 55-18-5, Dose [Inhibitor]: 0, 10 MG/L IN DRINKING WATER FOR DURATION OF STUDY BEGINNING 7 D PRIOR TO FIRST CARCINOGEN DOSE (STUDY DURATION: 6 MO), Species: RAT, Strain/Sex: BD6/FEMALE, Target Tissue: Type of Lesion: LIVER: TUMOR, Dose [Carcinogen]: 80 MG/KG BW 1/WK FOR 8 WK, Promoter: NONE USED): 94%, 69%, 27%, not significant; tumour outcome (control, treated, inhibition, significance) (Carcinogen: DIETHYLNITROSAMINE, 55-18-5, Dose [Inhibitor]: 0, 10 MG/L IN DRINKING WATER FOR DURATION OF STUDY BEGINNING 7 D PRIOR TO FIRST CARCINOGEN DOSE (STUDY DURATION: 6 MO), Species: RAT, Strain/Sex: BD6/FEMALE, Target Tissue: Type of Lesion: LIVER: TUMOR, Dose [Carcinogen]: 100 MG/L IN DRINKING WATER FOR 3.5 MO, Promoter: NONE USED): 95%, 94%, 1%, not significant; tumour outcome (control, treated, inhibition, significance) (Carcinogen: DIETHYNITROSAMINE, 55-18-5, Dose [Inhibitor]: 0, 1 MG/L IN DRINKING WATER FOR DURATION OF STUDY BEGINNING 7 D PRIOR TO FIRST CARCINOGEN DOSE (STUDY DURATION: 6 MO), Species: RAT, Strain/Sex: BD6/FEMALE, Target Tissue: Type of Lesion: LIVER: TUMOR, Dose [Carcinogen]: 80 MG/KG BW 1/WK FOR 8 WK, Promoter: NONE USED): 85%, 75%, 12%, not significant; tumour outcome (control, treated, inhibition, significance) (Carcinogen: ETHYLNITROSOUREA, 759-73-9, Dose [Inhibitor]: 0, 4 MG/L TAP DRINKING WATER FOR LIFE (STUDY DURATION: 310 D), Species: RAT, Strain/Sex: ALBINO/MALE,FEMALE, Target Tissue: Type of Lesion: KIDNEY: MESENCHYMAL TUMOR OR ADENOCARCINOMA, Dose [Carcinogen]: 75 MG/KG IN SALINE BY INTRAVENOUS INJECTION ONCE 21 D AFTER CONCEPTION): 33/89 (37%), 20/55 (36%), 3%, not calculated; tumour outcome (control, treated, inhibition, significance) (Carcinogen: ETHYLNITROSOUREA, 759-73-9, Dose [Inhibitor]: 0, 4 MG/L TAP DRINKING WATER FOR LIFE (STUDY DURATION: 310 D), Species: RAT, Strain/Sex: ALBINO/MALE,FEMALE, Target Tissue: Type of Lesion: SPINAL CORD: TUMOR, Dose [Carcinogen]: 75 MG/KG IN SALINE BY INTRAVENOUS INJECTION ONCE 21 D AFTER CONCEPTION): 55/89 (62%), 32/55 (58%), 6%, not calculated; tumour outcome (control, treated, inhibition, significance) (Carcinogen: ETHYLNITROSOUREA, 759-73-9, Dose [Inhibitor]: 0, 4 MG/L TAP DRINKING WATER FOR LIFE (STUDY DURATION: 310 D), Species: RAT, Strain/Sex: ALBINO/MALE/FEMALE, Target Tissue: Type of Lesion: BRAIN: GLIOMA OR ASTROCYTOMA, Dose [Carcinogen]: 75 MG/KG IN SALINE BY INTRAVENOUS INJECTION ONCE 21 D AFTER CONCEPTION): 54/89 (61%), 33/55 (60%), 2%, not calculated; tumour outcome (control, treated, inhibition, significance) (Carcinogen: ETHYLNITROSOUREA, 759-73-9, Dose [Inhibitor]: 0, 4 MG/L TAP DRINKING WATER FOR LIFE (STUDY DURATION: 319 D), Species: RAT, Strain/Sex: ALBINO/MALE,FEMALE, Target Tissue: Type of Lesion: NERVOUS SYSTEM: SCHWANNOMA, Dose [Carcinogen]: 75 MG/KG IN SALINE BY INTRAVENOUS INJECTION ONCE 21 D AFTER CONCEPTION): 37/89 (42%), 21/55 (38%), 10%, not calculated; tumour outcome (control, treated, inhibition, significance) (Carcinogen: METHYLAZOXYMETHANOL, 590-96-5, Dose [Inhibitor]: 4 PPM IN DRINKING WATER DAILY FOR 20 WK STARTING SIMULTANEOUSLY WITH CARCINOGEN TREATMENT AND CONTINUING THROUGH END OF, Species: RAT, Strain/Sex: SPRAGUE-DAWLEY/MALE, Target Tissue: Type of Lesion: COLON: ADENOCARCINOMA, Dose [Carcinogen]: 20 MG/KG BW 1/WK FOR 20 WK, Promoter: NONE USED): 14/14 (100%), 14/15 (93%), 7%, not significant; tumour outcome (control, treated, inhibition, significance) (Carcinogen: METHYLCHOLANTHRENE, 56-49-5, Dose [Inhibitor]: 0, 1 PPM IN DRINKING WATER FOR 13 WK BEGINNING 1 WK PRIOR TO CARCINOGEN TREATMENT (STUDY DURATION: 13 WK), Species: MOUSE, Strain/Sex: SWISS/FEMALE, Target Tissue: Type of Lesion: UTERUS: SQUAMOUS CELL TUMOR, Dose [Carcinogen]: 600 UG IN BEESWAX IMPREGNATED COTTON THREAD INSERTED INTO UTERINE CERVIX CANAL, Promoter: NONE USED): 18/25 (72%), 13/35 (37%), 49%, p<0.05; tumour outcome (control, treated, inhibition, significance) (Carcinogen: N'-NITROSOBIS(2-OXOPROPYL)AMINE, 60599-38-4, Dose [Inhibitor]: 0.1, 4 PPM (43.5 UG/D) IN DRINKING WATER BEGINNING 8 WK PRIOR TO FIRST CARCINOGEN DOSE AND CONTINUING FOR DURATION OF ST, Species: HAMSTER, Strain/Sex: SYRIAN/FEMALE, Target Tissue: Type of Lesion: PANCREAS: TUMOR, Dose [Carcinogen]: 10 MG/KG IN 0.9% SALINE 1/WK FOR 10 WK, Promoter: NONE USED): 88%, 88%, 0%
